Test results as given in publication PMC3979805, “Identification of Resveratrol Oligomers as Inhibitors of Cystic Fibrosis Transmembrane Conductance Regulator by High-Throughput Screening of Natural Products from Chinese Medicinal Plants” (PLoS ONE, 2014).

Key:
[1] = target: T1, cystic fibrosis transmembrane conductance regulator (CFTR) (Homo sapiens, UniProt P13569); assay: EYFP-H148Q iodide influx assay in FRT cells; excised inside-out patch-clamp ([…], nearly irreversible); assay type: cell-based
T1 construct: wild-type human CFTR stably expressed in FRT cells

[2] = target: T1, cystic fibrosis transmembrane conductance regulator (CFTR); assay: EYFP-H148Q iodide influx assay in FRT cells; excised inside-out patch-clamp ([…], reversible); assay type: cell-based

T1 sequence (P13569 whole entry): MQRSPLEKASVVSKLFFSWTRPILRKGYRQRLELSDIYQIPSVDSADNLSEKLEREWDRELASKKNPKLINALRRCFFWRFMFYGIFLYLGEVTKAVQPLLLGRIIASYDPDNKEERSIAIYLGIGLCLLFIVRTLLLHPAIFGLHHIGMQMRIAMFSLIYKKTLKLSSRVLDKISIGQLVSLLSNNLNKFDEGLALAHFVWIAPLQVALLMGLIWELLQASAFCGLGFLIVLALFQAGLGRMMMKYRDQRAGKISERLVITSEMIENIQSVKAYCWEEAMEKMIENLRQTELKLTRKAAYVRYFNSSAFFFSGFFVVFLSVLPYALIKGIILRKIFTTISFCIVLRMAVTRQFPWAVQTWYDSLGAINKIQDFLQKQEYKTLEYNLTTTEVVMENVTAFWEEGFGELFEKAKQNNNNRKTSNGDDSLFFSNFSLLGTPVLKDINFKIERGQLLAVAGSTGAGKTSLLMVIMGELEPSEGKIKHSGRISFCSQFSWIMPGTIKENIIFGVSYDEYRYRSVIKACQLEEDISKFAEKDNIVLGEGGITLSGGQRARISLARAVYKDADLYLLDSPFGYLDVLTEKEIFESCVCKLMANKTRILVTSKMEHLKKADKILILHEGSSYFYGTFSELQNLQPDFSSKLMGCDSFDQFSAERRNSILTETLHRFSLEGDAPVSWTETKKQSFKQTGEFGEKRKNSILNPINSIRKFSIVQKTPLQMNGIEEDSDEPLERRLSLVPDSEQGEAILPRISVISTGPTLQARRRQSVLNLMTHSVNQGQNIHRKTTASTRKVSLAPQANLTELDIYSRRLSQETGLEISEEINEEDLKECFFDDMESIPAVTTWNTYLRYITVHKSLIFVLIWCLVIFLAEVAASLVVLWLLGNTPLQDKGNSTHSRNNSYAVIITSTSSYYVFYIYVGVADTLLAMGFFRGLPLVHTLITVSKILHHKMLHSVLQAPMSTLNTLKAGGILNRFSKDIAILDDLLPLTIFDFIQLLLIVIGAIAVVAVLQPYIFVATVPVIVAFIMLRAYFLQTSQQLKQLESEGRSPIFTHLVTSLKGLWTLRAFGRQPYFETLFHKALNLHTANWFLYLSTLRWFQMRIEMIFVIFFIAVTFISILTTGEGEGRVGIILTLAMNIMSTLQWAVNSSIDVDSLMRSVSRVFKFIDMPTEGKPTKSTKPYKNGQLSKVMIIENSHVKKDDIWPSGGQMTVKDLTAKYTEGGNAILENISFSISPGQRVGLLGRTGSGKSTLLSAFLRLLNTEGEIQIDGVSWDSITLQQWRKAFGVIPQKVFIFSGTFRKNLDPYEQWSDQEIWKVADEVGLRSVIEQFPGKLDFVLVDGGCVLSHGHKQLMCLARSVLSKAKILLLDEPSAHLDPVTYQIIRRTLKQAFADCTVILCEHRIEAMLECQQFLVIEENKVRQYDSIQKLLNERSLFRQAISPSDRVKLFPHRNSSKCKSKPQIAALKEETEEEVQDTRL

Molecule Oc1ccc([C@H]2c3c(O)cc(O)cc3[C@H]3c4c(cc(O)cc4[C@H]2c2cc(/C=C/c4cc(O)cc5c4[C@H](c4cc(O)cc(O)c4)[C@@H](c4ccc(O)cc4)O5)ccc2O)O[C@@H]3c2ccc(O)cc2)cc1 [RV, r-2-viniferin] has an IC50 [1] of ~20 µM.

Oc1ccc(/C=C/c2cc(O)cc3c2[C@H](c2cc(O)cc(O)c2)[C@@H](c2ccc(O)cc2)O3)cc1 [TV, trans-ε-viniferin] gave an IC50 [2] of ~20 µM.
